Our source for the DC50, Dmax and IC50 values is US20250049798A1, “WEE1 PROTEIN KINASE DEGRADATION AGENT AND USE THEREOF” (HANGZHOU GLUBIO PHARMACEUTICAL CO. LTD., priority 2021, published 2025).

In one assay the target is HiBiT tagged Wee1 (Homo sapiens, UniProt P30291). In words: Wee1 protein degradation assay (HiBiT assay). Format: cell-based. As to conditions: engineered HT-1080 cells, 20 hours; for Dmax: maximum percentage of Wee1 degradation, read-out: HiBiT Wee1: Dmax.
In another assay the test system is NCI-H1048 cells. Nature of the assay: NCI-H1048 cell proliferation assay (CTG assay). Format: cell-based. As to conditions: Homo sapiens, 120 hours, read-out: CTG cellular assay_H1048: IC50. Here is the method: NCI-H1048 Cell Proliferation Assay (CTG Assay) The following is an example of an assay that can be used to determine the anti-proliferative activity of Wee1 PROTACs in a small cell lung cancer cell line, NCI-H1048 (ATCC Cat #CRL-5853). This cell line was cultured in RPMI-1640 medium supplemented with 10% FBS. About 1,200 NCI-H1048 cells in 50 μL of culture medium were seeded into a 384-well plate (Cat #3764, Corning), pre-spotted with compounds using the Echo 650 liquid handler (Beckman). The dose-response-curve (DRC) typically has 10-points with a highest concentration at 10 μM, and half-log diluted to as low as 0.316 nM, plus a DMSO control. Assay plates were incubated at 37° C. with 5% CO2 for 120 hours. After that, 20 μL of the CellTiter-Glo (CTG) Luminescent Cell Viability Assay Reagent (Cat #G7573, Promega) was added to each well and incubated at room temperature for 30 minutes. Luminescence was then measured with Pherastar microplate reader (BMG Labtech). All percentage of cell growth inhibition curves were processed using Collaborative Drug Discovery Vault.
Cell viability reads in compound-treated wells were normalized to that of DMSO control and expressed as Percent of Control (PoC, y). A four Parameter Logistic Model was used to determine the compound's EC50 and DC50, using the following equation: […]

A value given as a limit tells only on which side of the number the result lay.

HiBiT tagged Wee1, sequence (P30291 whole entry): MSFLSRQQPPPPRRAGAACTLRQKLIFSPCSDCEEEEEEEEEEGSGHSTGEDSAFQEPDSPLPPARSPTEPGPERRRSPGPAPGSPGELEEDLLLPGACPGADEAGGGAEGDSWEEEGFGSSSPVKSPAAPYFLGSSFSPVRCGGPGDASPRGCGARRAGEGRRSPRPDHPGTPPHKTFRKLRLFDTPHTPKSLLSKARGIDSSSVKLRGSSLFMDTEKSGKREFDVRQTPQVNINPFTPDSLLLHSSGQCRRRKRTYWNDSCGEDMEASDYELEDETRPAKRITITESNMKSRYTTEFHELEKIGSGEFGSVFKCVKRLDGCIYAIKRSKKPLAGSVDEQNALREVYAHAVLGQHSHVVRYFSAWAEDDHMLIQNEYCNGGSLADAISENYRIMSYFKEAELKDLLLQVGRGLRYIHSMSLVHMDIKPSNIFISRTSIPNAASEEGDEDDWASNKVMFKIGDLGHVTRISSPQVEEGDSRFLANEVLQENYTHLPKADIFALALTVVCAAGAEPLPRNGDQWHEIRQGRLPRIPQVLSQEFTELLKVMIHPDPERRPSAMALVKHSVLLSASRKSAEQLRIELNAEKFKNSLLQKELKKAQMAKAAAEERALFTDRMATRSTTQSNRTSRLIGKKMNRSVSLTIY

A word on the DC50: it is the midpoint of the concentration-degradation curve. Low values mean degradation at low concentration, high ones degradation only at high concentration. The Dmax is the largest share of the target that was removed. In general, IC50 refers to the concentration that gives 50% inhibition. Turning to `C=CCn1c(=O)c2cnc(Nc3ccc(C4CCN(C[C@@H]5CCN(c6ccc7c(c6)C(=O)N(C6CCC(=O)NC6=O)C7=O)C5)CC4)cc3)nc2n1-c1cccc(C(C)(C)O)n1` (some centres unmarked) [Compound 37], on HiBiT tagged Wee1, the DC50 was < 100 nM and the greatest degradation seen (Dmax) is 50 to 75%. Further, in the assay with NCI-H1048 cells, the 50% inhibitory concentration (IC50) lay within 25 to 100 nM.
In the same order, the values of `C=CCn1c(=O)c2cnc(Nc3ccc(N4CCN(CCCc5ccc6c(c5)n(C)c(=O)n6C5CCC(=O)NC5=O)CC4)cc3)nc2n1-c1cccc(C(C)(C)O)n1` (centres unmarked) [Compound 46] are < 100 nM, 50 to 75% and 25 to 100 nM.
In the same order, the values of `C=CCn1c(=O)c2cnc(Nc3ccc(N4CCN(CCCCc5ccc6c(c5)n(C)c(=O)n6C5CCC(=O)NC5=O)CC4)cc3)nc2n1-c1cccc(C(C)(C)O)n1` (centres unmarked) [Compound 47] are 100 to 1000 nM, 50 to 75% and ≤ 25 nM.
In the same order, the values of `C=CCn1c(=O)c2cnc(Nc3ccc(N4CCN(CCCCc5cccc6c5n(C)c(=O)n6C5CCC(=O)NC5=O)CC4)cc3)nc2n1-c1cccc(C(C)(C)O)n1` (centres unmarked) [Compound 51] are < 100 nM, 50 to 75% and ≤ 25 nM.
With `C=CCn1c(=O)c2cnc(Nc3ccc(N4CCC(CN5CCC(c6ccc7c(c6)n(C)c(=O)n7C6CCC(=O)NC6=O)CC5)CC4)cc3)nc2n1-c1cccc(C(C)(C)O)n1` (centres unmarked) [Compound 52], on HiBiT tagged Wee1, the DC50 was < 100 nM and the Dmax lay in the range of 50 to 75%. For the same compound, the half-inhibitory concentration (IC50) in the assay on NCI-H1048 cells is ≤ 25 nM.
In the same order, the values of `C=CCn1c(=O)c2cnc(Nc3ccc(N4CCC(CN5CCC(c6cccc7c6n(C)c(=O)n7C6CCC(=O)NC6=O)CC5)CC4)cc3)nc2n1-c1ccc2c(n1)[C@@](O)(CC)CC2` (some centres unmarked) [Compound 54] are < 100 nM, 50 to 75% and 25 to 100 nM.
In the case of `C=CCn1c(=O)c2cnc(Nc3ccc(N4CCC(N5CCN(c6ccc(NC7CCC(=O)NC7=O)cc6F)CC5)CC4)cc3)nc2n1-c1cccc(C(C)(C)O)n1` (centres unmarked) [Compound 67], on HiBiT tagged Wee1, the 50% degradation concentration (DC50) was < 100 nM and the maximal degradation (Dmax) is > 75%. The half-inhibitory concentration (IC50) with NCI-H1048 cells was ≤ 25 nM.
In the same order, the values of `C=CCn1c(=O)c2cnc(Nc3ccc(N4CCC(N5CCC(c6ccc(NC7CCC(=O)NC7=O)cc6)CC5)CC4)cc3)nc2n1-c1cccc(C(C)(C)O)n1` (centres unmarked) [Compound 70] are < 100 nM, > 75% and ≤ 25 nM.
In the same order, the values of `C=CCn1c(=O)c2cnc(Nc3ccc(N4CCN(CC5CCN(c6ccc7c(C8CCC(=O)NC8=O)nn(C)c7c6)CC5)CC4)cc3)nc2n1-c1cccc(C(C)(C)O)n1` (centres unmarked) [Compound 76] are < 100 nM, 50 to 75% and ≤ 25 nM.
In the same order, the values of `C=CCn1c(=O)c2cnc(Nc3ccc(C4CCN(CC5CCN(Cc6ccc7c(c6)n(C)c(=O)n7C6CCC(=O)NC6=O)CC5)CC4)cc3)nc2n1-c1cccc(C(C)(C)O)n1` (centres unmarked) [Compound 79] are < 100 nM, 50 to 75% and ≤ 25 nM.
As to `C=CCn1c(=O)c2cnc(Nc3ccc(N4CCC(CN5CCC(c6ccc(NC7CCC(=O)NC7=O)cc6C(F)(F)F)CC5)CC4)cc3)nc2n1-c1cccc(C(C)(C)O)n1` (centres unmarked) [Compound 80], on HiBiT tagged Wee1, the half-maximal degradation concentration (DC50) is < 100 nM and the maximal degradation (Dmax) is > 75%. In the assay on NCI-H1048 cells, the IC50 is ≤ 25 nM.
The matching figures for `C=CCn1c(=O)c2cnc(Nc3ccc(N4CCC(CN5CCC(c6ccc(NC7CCC(=O)NC7=O)cc6F)CC5)CC4)cc3)nc2n1-c1cccc(C(C)(C)O)n1` (centres unmarked) [Compound 81]: < 100 nM, > 75% and ≤ 25 nM.
The matching figures for `C=CCn1c(=O)c2cnc(Nc3ccc(N4CCC(N5CCC(c6ccc(NC7CCC(=O)NC7=O)cc6F)CC5)CC4)cc3)nc2n1-c1cccc(C(C)(C)O)n1` (centres unmarked) [Compound 82]: < 100 nM, > 75% and ≤ 25 nM.
The matching figures for `C=CCn1c(=O)c2cnc(Nc3ccc(C4CCN(CC5CCN(c6ccc(NC7CCC(=O)NC7=O)cc6)CC5)CC4)cc3)nc2n1-c1cccc(C(C)(C)O)n1` (centres unmarked) [Compound 85]: < 100 nM, 50 to 75% and ≤ 25 nM.
In the case of `C=CCn1c(=O)c2cnc(Nc3ccc(N4CCN(CC5CCN(c6ccc(NC7CCC(=O)NC7=O)cn6)CC5)CC4)cc3)nc2n1-c1cccc(C(C)(C)O)n1` (centres unmarked) [Compound 87], at HiBiT tagged Wee1, the DC50 was < 100 nM and the Dmax was > 75%. For the same compound, the IC50 with NCI-H1048 cells is ≤ 25 nM.
The matching figures for `C=CCn1c(=O)c2cnc(Nc3ccc(C4CCN(CN5CCN(c6ccc7c(N8CCC(=O)NC8=O)nn(C)c7c6)CC5)CC4)cc3)nc2n1-c1cccc(C(C)(C)O)n1` [Compound 89]: < 100 nM, > 75% and ≤ 25 nM.
In the same order, the values of `C=CCn1c(=O)c2cnc(Nc3ccc(N4CCC(CN(C)C5CCN(c6ccc(NC7CCC(=O)NC7=O)cc6F)CC5)CC4)cc3)nc2n1-c1cccc(C(C)(C)O)n1` (centres unmarked) [Compound 91] are < 100 nM, > 75% and ≤ 25 nM.
As to `C=CCn1c(=O)c2cnc(Nc3ccc(N4CCC(CN5CCN(c6ccc(NC7CCC(=O)NC7=O)cc6)CC5)CC4)cc3)nc2n1-c1cccc(C(C)(C)O)n1` (centres unmarked) [Compound 92], at HiBiT tagged Wee1, the DC50 is < 100 nM and the Dmax is > 75%. Further, the IC50 with NCI-H1048 cells is ≤ 25 nM.
The matching figures for `C=CCn1c(=O)c2cnc(Nc3ccc(N4CCN(C5CCN(c6ccc(NC7CCC(=O)NC7=O)cc6F)CC5)CC4)cc3)nc2n1-c1cccc(C(C)(C)O)n1` (centres unmarked) [Compound 93]: < 100 nM, > 75% and ≤ 25 nM.
The matching figures for `C=CCn1c(=O)c2cnc(Nc3ccc(N4CCC(CN5CCC(c6ccc7c(N8CCC(=O)NC8=O)nn(C)c7c6)CC5)CC4)cc3)nc2n1-c1cccc(C(C)(C)O)n1` [Compound 95]: < 100 nM, > 75% and ≤ 25 nM.
In the same order, the values of `C=CCn1c(=O)c2cnc(Nc3ccc(N4CCC(CN5CCC(c6ccc7c(C8CCC(=O)NC8=O)nn(C)c7c6)CC5)CC4)cc3)nc2n1-c1cccc(C(C)(C)O)n1` (centres unmarked) [Compound 96] are < 100 nM, 50 to 75% and ≤ 25 nM.
Take `C=CCn1c(=O)c2cnc(Nc3ccc(C4CCN(CC5CCN(c6cccc7c6n(C)c(=O)n7C6CCC(=O)NC6=O)CC5)CC4)c(C)c3)nc2n1-c1cccc(C(C)(C)O)n1` (centres unmarked) [Compound 97]: the Dmax on HiBiT tagged Wee1 lay within 50 to 75%. The concentration for half-maximal inhibition (IC50) with NCI-H1048 cells was ≤ 25 nM.
Turning to `C=CCn1c(=O)c2cnc(Nc3ccc(C4CCN(CC5CCN(c6ccc7c(N8CCC(=O)NC8=O)nn(C)c7c6)CC5)CC4)cc3)nc2n1-c1cccc(C(C)(C)O)n1` [Compound 104], at HiBiT tagged Wee1, the half-maximal degradation concentration (DC50) was < 100 nM and the Dmax was > 75%. Besides, the IC50 in the assay with NCI-H1048 cells is ≤ 25 nM.
In the same order, the values of `C=CCn1c(=O)c2cnc(Nc3ccc(N4CCN(CC5CCN(c6ccc7c(N8CCC(=O)NC8=O)nn(C)c7c6)CC5)CC4)cc3)nc2n1-c1cccc(C(C)(C)O)n1` [Compound 105] are < 100 nM, > 75% and ≤ 25 nM.
The matching figures for `C=CCn1c(=O)c2cnc(Nc3ccc(N4CCC(CN5CCN(c6ccc7c(C8CCC(=O)NC8=O)nn(C)c7c6)CC5)CC4)cc3)nc2n1-c1cccc(C(C)(C)O)n1` (centres unmarked) [Compound 106]: < 100 nM, > 75% and ≤ 25 nM.
In the same order, the values of `C=CCn1c(=O)c2cnc(Nc3ccc(C4CCN(CC5CCN(c6cccc7c6n(C)c(=O)n7C6CCC(=O)NC6=O)CC5)CC4)cc3)nc2n1-c1ccc2c(n1)[C@@](O)(CC)CC2` (some centres unmarked) [Compound 108] are < 100 nM, 50 to 75% and ≤ 25 nM.
Take `C=CCn1c(=O)c2cnc(Nc3ccc(C4CCN(CC5CCN(c6ccc(NC7CCC(=O)NC7=O)cc6F)CC5)CC4)cc3)nc2n1-c1ccc2c(n1)[C@@](O)(CC)CC2` (some centres unmarked) [Compound 109]: at HiBiT tagged Wee1, the half-maximal degradation concentration (DC50) is < 100 nM and the Dmax fell in the range of 50 to 75%. For the same compound, the IC50 in the assay on NCI-H1048 cells was ≤ 25 nM.
The matching figures for `C=CCn1c(=O)c2cnc(Nc3ccc(C4CCN(CC5CCN(c6ccc7c(C8CCC(=O)NC8=O)nn(C)c7c6)CC5)CC4)cc3)nc2n1-c1cccc(C(C)(C)O)n1` (centres unmarked) [Compound 111]: < 100 nM, 50 to 75% and ≤ 25 nM.
In the same order, the values of `C=CCn1c(=O)c2cnc(Nc3ccc(N4CCN(CC5CCN(c6ccc7c(N8CCC(=O)NC8=O)nn(C)c7c6)CC5)CC4)cc3)nc2n1-c1ccc2c(n1)[C@@](O)(CC)CC2` [Compound 114] are < 100 nM, > 75% and ≤ 25 nM.
The matching figures for `C=CCn1c(=O)c2cnc(Nc3ccc(N4CCN(CC5CCN(c6ccc7c(N8CCC(=O)NC8=O)nn(C)c7c6)CC5)CC4)cc3)nc2n1-c1ccc2c(n1)[C@](C)(O)CC2` [Compound 115]: < 100 nM, > 75% and ≤ 25 nM.
On to `C=CCn1c(=O)c2cnc(Nc3ccc(N4CCN(CC5CCN(c6cccc7c(C8CCC(=O)NC8=O)nn(C)c67)CC5)CC4)cc3)nc2n1-c1cccc(C(C)(C)O)n1` (centres unmarked) [Compound 117], for which, at HiBiT tagged Wee1, the half-maximal degradation concentration (DC50) is < 100 nM and the Dmax is > 75%. In addition, in the assay on NCI-H1048 cells, the IC50 was ≤ 25 nM.
